# Assay results as given in US9820481B2, “Encapsulation of active ingredients and method of making” (Arch Chemicals, Inc., priority 2013, dated 2017).
# Assay: Degradation temperature by thermal gravimetric analysis (TGA) or differential scanning calorimetry (DSC)
# Format: physicochemical
# Method: The degradation temperature was determined by thermal gravimetric analysis (TGA) or differential scanning calorimetry (DSC).
substance,measurement,value
zinc pyrithione [A (comp)],Degradation Temp,265 °C
